The assay has as its target T1, HEK cells stably transfected with tetracycline inducible hNR1 and hNR2A (Homo sapiens, UniProt Q05586+Q12879).
T1 construct: expressed in transfected cells; host or cells: HEK cells, stably transfected, tetracycline/doxycycline inducible
The assay can be described thus: Assay 1: Cell-Based Assay, cytosolic calcium response to positive allosteric modulators (with 30 μM glycine and 300 nM L-glutamate, EC30). The settings on record: for EC50: cytosolic calcium response, with 30 μM glycine and 300 nM L-glutamate (EC30), — = no plateau was reached; for Max %: responses scaled relative to 100 μM L-glutamate maximal response (100%) and 0 μM L-glutamate (0%). Put shortly:
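Cells induced 24 h with 7.5 μg mL^−1 doxycycline plus 500 μM (+)-ketamine, loaded 60 min at 37 °C with calcium dye in Mg-free HBSS (1.8 mM Ca, probenecid, 10 μM (+)-ketamine, pH 7.15). Peak RFU over 5 min after compound addition, scaled to 100 μM L-glutamate (100%) and 0 μM (0%); four-parameter Hill fit for EC50, max % if no plateau.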

The structures appear in SMILES notation.

In general, EC50 refers to the concentration that produces a half-maximal response.

T1 sequence (Q12879 23-1464, other chains not shown): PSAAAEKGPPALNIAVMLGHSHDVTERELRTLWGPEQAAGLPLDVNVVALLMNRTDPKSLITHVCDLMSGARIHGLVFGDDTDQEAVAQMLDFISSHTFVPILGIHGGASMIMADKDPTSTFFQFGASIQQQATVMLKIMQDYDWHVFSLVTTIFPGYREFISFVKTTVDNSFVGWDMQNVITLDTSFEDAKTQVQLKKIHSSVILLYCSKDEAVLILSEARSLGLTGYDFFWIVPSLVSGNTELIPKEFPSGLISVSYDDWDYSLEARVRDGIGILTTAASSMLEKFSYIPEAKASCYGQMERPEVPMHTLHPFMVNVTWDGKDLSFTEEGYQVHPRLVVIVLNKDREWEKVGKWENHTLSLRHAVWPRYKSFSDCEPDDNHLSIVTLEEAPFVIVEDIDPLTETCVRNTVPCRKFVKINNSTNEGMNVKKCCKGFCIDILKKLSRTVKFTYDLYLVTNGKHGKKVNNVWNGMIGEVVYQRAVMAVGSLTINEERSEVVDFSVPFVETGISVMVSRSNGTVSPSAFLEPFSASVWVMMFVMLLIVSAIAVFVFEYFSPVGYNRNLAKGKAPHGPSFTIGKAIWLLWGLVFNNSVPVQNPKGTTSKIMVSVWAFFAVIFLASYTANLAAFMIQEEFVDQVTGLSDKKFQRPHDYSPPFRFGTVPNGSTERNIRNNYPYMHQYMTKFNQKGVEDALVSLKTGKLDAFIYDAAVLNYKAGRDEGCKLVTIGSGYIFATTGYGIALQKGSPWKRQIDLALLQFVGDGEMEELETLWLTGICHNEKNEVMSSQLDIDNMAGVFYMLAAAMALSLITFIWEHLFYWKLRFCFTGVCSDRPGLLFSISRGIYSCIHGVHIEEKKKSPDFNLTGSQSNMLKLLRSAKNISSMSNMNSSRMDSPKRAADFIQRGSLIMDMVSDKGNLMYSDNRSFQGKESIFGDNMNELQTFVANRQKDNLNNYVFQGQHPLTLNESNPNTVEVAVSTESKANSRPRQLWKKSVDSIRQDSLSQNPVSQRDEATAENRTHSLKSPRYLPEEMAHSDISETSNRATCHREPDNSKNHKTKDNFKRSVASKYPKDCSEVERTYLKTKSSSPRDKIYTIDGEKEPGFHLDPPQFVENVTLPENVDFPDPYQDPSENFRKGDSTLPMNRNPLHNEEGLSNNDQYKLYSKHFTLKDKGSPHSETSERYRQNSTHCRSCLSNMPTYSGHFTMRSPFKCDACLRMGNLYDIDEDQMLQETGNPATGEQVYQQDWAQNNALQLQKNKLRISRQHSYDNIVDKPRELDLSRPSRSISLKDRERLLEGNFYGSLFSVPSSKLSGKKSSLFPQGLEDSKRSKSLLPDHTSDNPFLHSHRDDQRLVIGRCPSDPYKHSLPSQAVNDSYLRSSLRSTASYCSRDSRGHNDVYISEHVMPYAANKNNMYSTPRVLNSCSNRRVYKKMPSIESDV

Turning to `Cc1sc2nc(Cn3nc(C(F)(F)F)cc3C(F)(F)F)cc(=O)n2c1[C@@H]1C[C@H]1CO` (relative stereo) [Example 15.2, 7-((3,5-bis(trifluoromethyl)-1H-pyrazol-1-yl)methyl)-3-(trans-2-(hydroxymethyl)cyclopropyl)-2-methyl-5H-thiazolo[3,2-a]pyrimidin-5-one], under “Table 2”, the EC50 stood at 1000 nM and the Max % is recorded as 167%.
The like results for `CCN(Cc1cc(=O)n2c(CC#N)c(C)sc2n1)c1ccc(F)cc1` [Example 10.17, 2-[7-[(N-ethyl-4-fluoro-anilino)methyl]-2-methyl-5-oxo-thiazolo[3,2-a]pyrimidin-3-yl]acetonitrile] were, in that order, 1200 nM and 174%.
For the compound `CNC(=O)c1c(C)sc2nc(Cc3cccc(Cl)c3F)cc(=O)n12` [Example 21.14, 7-[(3-chloro-2-fluoro-phenyl)methyl]-N,2-dimethyl-5-oxo-thiazolo[3,2-a]pyrimidine-3-carboxamide], where the note is “Table 2”, the EC50 is 11000 nM and the Max % is given as 112%.
As for `CCN(Cc1cc(=O)n2c(C#N)c(C)sc2n1)c1ccc(F)c(F)c1` [Example 7.1, 7-(((3,4-difluorophenyl)(ethyl)amino)methyl)-2-methyl-5-oxo-5H-thiazolo[3,2-a]pyrimidine-3-carbonitrile], where the note is “Table 2”, the EC50 worked out at 853 nM and the Max % came out at 184%.
Consider `CC(=O)c1c(C(F)(F)F)sc2nc(Cc3cccc(C#N)c3F)cc(=O)n12` [compound 257, 3-[[3-acetyl-5-oxo-2-(trifluoromethyl)thiazolo[3,2-a]pyrimidin-7-yl]methyl]-2-fluoro-benzonitrile], for which, under “Table 3”, the EC50 was 20500 nM.
`CCN(Cc1cc(=O)n2c(-c3cc(F)cc(F)c3)c(C)sc2n1)c1ccc(F)cc1` [Example 5.55, 3-(3,5-difluorophenyl)-7-[(N-ethyl-4-fluoro-anilino)methyl]-2-methyl-thiazolo[3,2-a]pyrimidin-5-one]: under “Table 2”, the EC50 came out at 4700 nM and the Max % is 111%.
Take `Cc1sc2nc(Cn3nc(C(F)(F)F)cc3Cl)cc(=O)n2c1C1CC1` [compound 116, 7-[[5-chloro-3-(trifluoromethyl)pyrazol-1-yl]methyl]-3-cyclopropyl-2-methyl-thiazolo[3,2-a]pyrimidin-5-one]: the EC50 (Table 3) was determined as 351 nM.
Consider `CCNC(=O)c1c(C)sc2nc(Cc3cccc4ccccc34)cc(=O)n12` [Example 21.35, N-ethyl-2-methyl-7-(naphthalen-1-ylmethyl)-5-oxo-5H-thiazolo[3,2-a]pyrimidine-3-carboxamide], for which, where the note is “Table 2”, the Max % turned out to be 77.8%.
For `CCNC(=O)c1c(C(F)(F)F)sc2nc(Cc3cccc(C(F)(F)F)c3F)cc(=O)n12` [compound 40, N-ethyl-7-[[2-fluoro-3-(trifluoromethyl)phenyl]methyl]-5-oxo-2-(trifluoromethyl)thiazolo[3,2-a]pyrimidine-3-carboxamide], where the note is “Table 3”, the EC50 was 1320 nM.
In the case of `CC1CC1c1c(Cl)sc2nc(Cc3cccc(C(F)(F)F)c3F)cc(=O)n12` (centres unmarked) [compound 121, 2-chloro-7-[[2-fluoro-3-(trifluoromethyl)phenyl]methyl]-3-(2-methylcyclopropyl)thiazolo[3,2-a]pyrimidin-5-one], the EC50 (Table 3) was found to be 17600 nM.
With `Cc1sc2nc(Cn3nc(C(F)(F)F)cc3Cl)cc(=O)n2c1-c1cscn1` [compound 151, 7-[[5-chloro-3-(trifluoromethyl)pyrazol-1-yl]methyl]-2-methyl-3-thiazol-4-yl-thiazolo[3,2-a]pyrimidin-5-one], where the note is “Table 3”, the EC50 came to 538 nM.
Take `N#Cc1cccc(Cc2cc(=O)n3c(C4CC4C(F)(F)F)c(C(F)(F)F)sc3n2)c1F` (centres unmarked) [compound 88, 2-fluoro-3-[[5-oxo-2-(trifluoromethyl)-3-[2-(trifluoromethyl)cyclopropyl]thiazolo[3,2-a]pyrimidin-7-yl]methyl]benzonitrile]: the EC50 (Table 3) turned out to be 3700 nM.

Values taken from patent US9988400B2 (Genentech, Inc., priority 2013, dated 2018).
